Reference: patent US5246947A, “Substituted pyridinylamino-1,2-benzisothiazoles and their use for treating depression” (Hoechst-Roussel Pharmaceuticals Incorporated, priority 1992, dated 1993)
Counter-ions that a name gives are not always drawn. Like-named read-outs stand apart in the source and are kept apart here.

Legend:
[1] = molecular target: T1, α2-Receptor (Rattus norvegicus, UniProt P22909); experiment: [^3 H]-Clonidine Binding: α2-Receptor; set-up: species or system rat (male Wistar)
T1 construct: the cortical tissue rapidly dissected; from tissue; host or cells: cortical tissue of male Wistar rats, washed membrane suspension
T1 sequence (P22909 1-465): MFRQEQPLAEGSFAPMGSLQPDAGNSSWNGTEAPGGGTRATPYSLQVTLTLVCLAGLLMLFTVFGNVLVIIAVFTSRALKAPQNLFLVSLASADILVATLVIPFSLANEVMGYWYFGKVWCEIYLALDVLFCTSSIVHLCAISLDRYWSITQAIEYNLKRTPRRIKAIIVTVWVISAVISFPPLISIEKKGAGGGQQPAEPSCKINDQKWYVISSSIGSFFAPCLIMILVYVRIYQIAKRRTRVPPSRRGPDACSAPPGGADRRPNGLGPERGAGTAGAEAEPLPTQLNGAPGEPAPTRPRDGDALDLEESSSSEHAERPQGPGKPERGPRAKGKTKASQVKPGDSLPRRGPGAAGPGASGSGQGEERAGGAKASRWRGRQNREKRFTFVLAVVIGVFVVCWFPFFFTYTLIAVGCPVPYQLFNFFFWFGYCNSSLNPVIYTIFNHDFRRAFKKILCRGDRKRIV
Method: [^3 H]-Clonidine Binding: α2 -Receptor
The purpose of this assay is to assess the interaction of compounds with central α2 -receptors.
a. 57.2 g Tris HCl 16.2 Tris Base-bring to 1 liter (0.5M Tris buffer, pH 7.7) b. Make a 1:10 dilution in distilled H2 O (0.05M Tris buffer, pH 7.7)
Tris buffer containing physiological ions b. Dilute 1:10 in distilled H2 O. This yields 0.05 M Tris HCl, pH 7.7; containing NaCl (120 mM), KCl (5 mM), CaCl2 (2 mM) and MgCl2 (1 mM) 3. [4-^3 H]-Clonidine hydrochloride (20-30 Ci/mmol) is obtained from New England Nuclear.
Clonidine-HCl is obtained from Boehringer Ingelheim. A stock solution of 0.1 mM clonidine is made up to determine nonspecific binding. This yields a final concentration of 1 μM in the assay (20 μl to 2 ml).
Male Wistar rats are sacrified by decapitation and the cortical tissue rapidly dissected. The tissue is homogenized in 50 volumes of 0.05M Tris buffer, pH 7.7 (buffer 1b) with the Brinkman Polytron, then centrifuged at 40,000 g for 15 minutes. […]
Tissue homogenates are incubated for 20 minutes at 25° C. with 3 nM [^3 H]-clonidine and varying drug concentrations, then immediately filtered under reduced pressure on Whatman GF/B filters. […] Ten ml of liquiscint counting solution is added to each sample which is then counted by liquid scintillation spectroscopy. […] IC50 values are calculated using log-probit analysis.

[2] = system: TPA-induced ear edema; experiment: TPA-Induced Ear Edema (TPAEE); type: in vivo, mouse (female Swiss Webster); conditions: topical, ear plug weight after about 5 hours, Table 3
Method: The dermatological activity of the compounds was ascertained according to the following method.
TPA-Induced Ear Edema (TPAEE)
The purpose of this assay was to determine the ability of a topically applied compound to prevent ear edema induced by topical application of TPA (phorbol 12-myristate acetate). Female Swiss Webster mice topically received TPA (10 μg/ear) on the right ear and vehicle on the left ear. […] After about 5 hours, the animals are sacrificed and a 4 mm diameter plug is taken from each ear and weighed. The difference between the right and left ear plug weights for each animal was determined. The antiinflammatory activity of the test compound is expressed as the mean percent change in ear plug weight of the treated animals compared to the mean percent change in the plug weight of the control animals. (Young, J. M. et al., J. Invest. Dermatol., 80 (1983), pp. 48-52.)

[3] = molecular target: T2, Brain AChE (acetylcholinesterase) (Rattus norvegicus, UniProt P37136); experiment: biochemical; set-up: species or system rat (male Wistar); conditions: rat striatum; 5 mM acetylthiocholine final; pH 7.2; Table 1; read-out: Inhibitory Concentration Brain AChE
T2 construct: corpora striata dissected free, weighed and homogenized in 19 volumes; from tissue; host or cells: corpora striata of male Wistar rats, whole homogenate
T2 sequence (P37136 32-614): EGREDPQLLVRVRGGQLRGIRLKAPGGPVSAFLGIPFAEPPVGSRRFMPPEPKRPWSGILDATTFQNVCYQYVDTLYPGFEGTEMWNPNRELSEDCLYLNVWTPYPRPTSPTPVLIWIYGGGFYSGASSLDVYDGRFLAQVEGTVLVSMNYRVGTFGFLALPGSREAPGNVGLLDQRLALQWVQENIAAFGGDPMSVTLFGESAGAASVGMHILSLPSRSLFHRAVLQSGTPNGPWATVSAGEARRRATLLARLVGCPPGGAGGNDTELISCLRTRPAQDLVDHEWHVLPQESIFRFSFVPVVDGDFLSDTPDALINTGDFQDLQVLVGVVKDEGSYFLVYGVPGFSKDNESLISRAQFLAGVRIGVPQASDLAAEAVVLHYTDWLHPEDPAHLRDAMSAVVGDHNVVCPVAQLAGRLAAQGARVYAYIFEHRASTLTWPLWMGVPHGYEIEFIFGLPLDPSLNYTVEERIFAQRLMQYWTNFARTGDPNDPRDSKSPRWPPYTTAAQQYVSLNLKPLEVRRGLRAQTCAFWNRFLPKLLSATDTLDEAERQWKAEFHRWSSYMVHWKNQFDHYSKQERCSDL
Description: Cholinesterases are found throughout the body, both in the brain and in serum. However, only brain acetylcholinesterase (AChE) distribution is correlated with central cholinergic innervation. […] We have determined in vitro inhibition of acetylcholinesterase activity in rat striatum according to the method described below.
In Vitro Inhibition of Acetylcholinesterase Activity in Rat Striatum
The method described below was used in this invention for assaying anticholinesterase activity. This is a modification of the method of Ellman et al., Biochem. Pharmacol. 7, 88 (1961).
1. 0.05M Phosphate buffer, pH 7.2
(c) add (a) to (b) until pH reaches 7.2
4. A 2 mM stock solution of the test drug is made up in a suitable solvent and brought to volume with 0.5 mM DTNB (reagent 3). Drugs are serially diluted (1:10) such that the final concentration (in cuvette) is 10^-4 M and screened for activity. If active, IC50 values are determined from the inhibitory activity of subsequent concentrations.
Enzyme activity is measured with the Beckman DU-50 spectrophotometer. This method can be used for IC50 determinations and for measuring kinetic constants.
Reagents are added to the blank and sample cuvettes as follows:
This program also calculates the rate of absorbance change for each cuvette.
Substrate concentration is 10 mM diluted 1:2 in assay yielding final concentration of 5 mM.

[4] = system: serotonin (5-hydroxytryptamine, 5HT) uptake; experiment: [^3 H]-Serotonin Uptake in Rat Whole Brain and Hypothalamic Synaptosomes; type: biochemical, rat (male CR Wistar); conditions: [^3 H]-5HT 50 nM, 37° C., 5 min, Table 2
Method: [^3 H]-Serotonin Uptake in Rat Whole Brain and Hypothalamic Synaptosomes
This activity is determined in an assay which measures [^3 H]-serotoninuptake in rat whole brain and hypothalamic synaptosomes.
Male CR Wistar rats (100-125 g)
Prepare a 1 liter batch containing the following salts.
3. A 0.1 mM stock solution of serotonin creatinine SO4 is made up in 0.01N HCl. This is used to dilute the specific activity of the radiolabeled 5HT.
4. 5-[1,2-^3 H(N)]-Hydroxytryptamine creatinine sulfate (serotonin), specific activity 20-30 Ci/mmol, is used.
The final desired concentration of [^3 H]-5HT in the assay is 50 nM. The dilution factor is 0.8. The KHBB is made up to contain 62.5 nM of [^3 H]-5HT.
5. For most assays, a 1 mM stock solution of the test compound is made up in a suitable solvent and serially diluted such that the final concentration in the assay ranges from 2×10^-8 to 2×10^-5 M. Seven concentrations are used for each assay.
Male Wistar rats are decapitated and the brain rapidly removed.
Tubes are incubated at 37° C. under a 95% O2 /5% CO2 atmosphere for 5 minutes. For each assay, 3 tubes are incubated with 20 μl of vehicle at 0° C. in an ice bath. After incubation all tubes are immediately centrifuged at 4000 g for 10 minutes. […] The tubes are vigorously vortexted, decanted into scintillation vials, and counted in 10 ml of Liquiscint scintillation counting cocktail. […]

[5] = system: norepinephrine (NE) uptake; experiment: [^3 H]-Norepinephrine Uptake in Rat Whole Brain Synaptosomes; type: biochemical, rat (male CR Wistar); conditions: [^3 H]-NE 50 nM, 37° C., 5 min, Table 2

Cn1ccc2cc(Nc3ccncc3)ccc21 [1-Methyl-5-(4-pyridinylamino)-1H-indole]
IC50 [1]: 12 nM | Edema Reduction ([2]; 10 μg/ear): -67%

CCCN(c1ccncc1)c1ccc2c(ccn2C)c1 [1-Methyl-5-(propyl-4-pyridinylamino)-1H-indole maleate]
IC50 [3]: 31900 nM | IC50 [4]: 760 nM | IC50 [5]: 34 nM | IC50 ([1]; rat cortical tissue, 3 nM [^3 H]-clonidine, 25° C., 20 min, Table 2, read-out: [^3 H]-Clonidine Binding IC50): 330 nM

CN(C)CCC=C1c2ccccc2CCc2ccccc21 [Amitriptyline]
IC50 [5]: 7700 nM

COc1ccc2c(c1)c(CC(=O)O)c(C)n2C(=O)c1ccc(Cl)cc1 [Indomethacin, reference compound]
Edema Reduction ([2]; at 1 mg/ear): -86%

CNCCC=C1c2ccccc2CCc2ccccc21 [Notriptyline]
IC50 [5]: 4000 nM
